Experimental data taken from patent publication EP0908457B1, “3-(1,2-benzisothiazol- and isoxazol-5-Y1)-2,4(1H,3H)-pyrimidinedione or thione and 3-(1,2-benzisothiazol- and isoxazol-5-y1)-4(3H)-pyrimidinone or thione herbicidal agents” (BASF AKTIENGESELLSCHAFT, priority 1997, dated 1999).

Assays:
Sagittaria pygmaea, L. = assay: Preemergence weed control under flooded paddy conditions, SAGPY (Arrowhead (Pygmaea)); format: in vivo; conditions: flooded paddy; note: meaning of each grade not given here
Cyperus iria = assay: Preemergence weed control under flooded paddy conditions, CYPIR (Rice Flatsedge); format: in vivo; conditions: flooded paddy; note: meaning of each grade not given here
[1] = test system: Oryza sativa, (L.) Tebonnet; assay: Rice tolerance to post-transplant applications under flooded paddy conditions (Example 187), ORYSAT (Rice, Tebonnet); for herbicidal effect rating ORYSAT: meaning of each grade not given here
[2] = test system: Monochoria vaginalis, Presl.; assay: Preemergence weed control under flooded paddy conditions, MOOVA (Monochoria); format: in vivo; conditions: flooded paddy; note: meaning of each grade not given here
[3] = test system: Cyperus serotinus, Rottb.; assay: Preemergence weed control under flooded paddy conditions, CYPSE (Flatsedge); format: in vivo; note: meaning of each grade not given here
[4] = test system: Echinochloa oryzoides (Ard.) Fritsch.; assay: Preemergence weed control under flooded paddy conditions, ECHORC (Watergrass (Calif.)); format: in vivo; conditions: flooded paddy; note: meaning of each grade not given here
[5] = Rate 0.0320 kg/ha, preemergence, rated 3-4 weeks after treatment
[6] = Rate 0.0620 kg/ha, preemergence, rated 3-4 weeks after treatment
[7] = Rate 0.1250 kg/ha, preemergence, rated 3-4 weeks after treatment
[8] = Rate 0.2500 kg/ha, preemergence, rated 3-4 weeks after treatment
[9] = Rate 0.5000 kg/ha, preemergence, rated 3-4 weeks after treatment
[10] = Rate 0.0320 kg/ha, rated 3-4 weeks after treatment
[11] = Rate 0.0620 kg/ha, rated 3-4 weeks after treatment
[12] = Rate 0.1250 kg/ha, rated 3-4 weeks after treatment
[13] = Rate 0.2500 kg/ha, rated 3-4 weeks after treatment
[14] = Rate 0.5000 kg/ha, rated 3-4 weeks after treatment
[15] = 0.0313 kg/ha, preemergence, rated three to four weeks after treatment
[16] = 0.0625 kg/ha, preemergence, rated three to four weeks after treatment
[17] = 0.1250 kg/ha, preemergence, rated three to four weeks after treatment
[18] = 0.2500 kg/ha, preemergence, rated three to four weeks after treatment
[19] = Rate 0.0320 kg/ha, preemergence weeds, rated three to four weeks after treatment
[20] = Rate 0.0620 kg/ha, preemergence weeds, rated three to four weeks after treatment
[21] = Rate 0.1250 kg/ha, preemergence weeds, rated three to four weeks after treatment
[22] = Rate 0.2500 kg/ha, preemergence weeds, rated three to four weeks after treatment

## Cc1ccc(OCC(=O)C(C)(C)C)c(-c2nsc3ccc(-n4c(=O)cc(C(F)(F)F)n(C)c4=O)cc23)c1 [Example 540, 2,4(1H,3H)-Pyrimidinedione, 3-{3-[6-(3,3-dimethyl-2-oxobutoxy)-m-tolyl]-1,2-benzisothiazol-5-yl}-1-methyl-6-(trifluoromethyl)-]
Sagittaria pygmaea, L.; [5]
  herbicidal effect rating, SAGPY: 0.0
Sagittaria pygmaea, L.; [6]
  herbicidal effect rating, SAGPY: 0.0
Sagittaria pygmaea, L.; [7]
  herbicidal effect rating, SAGPY: 0.0
Sagittaria pygmaea, L.; [8]
  herbicidal effect rating, SAGPY: 0.0
Sagittaria pygmaea, L.; [9]
  herbicidal effect rating, SAGPY: 0.0
Cyperus iria; [5]
  herbicidal effect rating, CYPIR: 6.0
Cyperus iria; [6]
  herbicidal effect rating, CYPIR: 8.0
Cyperus iria; [7]
  herbicidal effect rating, CYPIR: 9.0
Cyperus iria; [8]
  herbicidal effect rating, CYPIR: 9.0
Cyperus iria; [9]
  herbicidal effect rating, CYPIR: 9.0
[1]; [10]
  herbicidal effect rating ORYSAT: 0.0
[1]; [11]
  herbicidal effect rating ORYSAT: 0.0
[1]; [12]
  herbicidal effect rating ORYSAT: 0.0
[1]; [13]
  herbicidal effect rating ORYSAT: 1.0
[1]; [14]
  herbicidal effect rating ORYSAT: 3.0
[2]; [5]
  herbicidal effect rating, MOOVA: 8.0
[2]; [6]
  herbicidal effect rating, MOOVA: 9.0
[2]; [7]
  herbicidal effect rating, MOOVA: 9.0
[2]; [8]
  herbicidal effect rating, MOOVA: 9.0
[2]; [9]
  herbicidal effect rating, MOOVA: 9.0
[3]; [5]
  herbicidal effect rating, CYPSE: 0.0
[3]; [6]
  herbicidal effect rating, CYPSE: 0.0
[3]; [7]
  herbicidal effect rating, CYPSE: 0.0
[3]; [8]
  herbicidal effect rating, CYPSE: 0.0
[3]; [9]
  herbicidal effect rating, CYPSE: 3.0
[4]; [5]
  herbicidal effect rating, ECHORC: 2.3
[4]; [6]
  herbicidal effect rating, ECHORC: 3.4
[4]; [7]
  herbicidal effect rating, ECHORC: 4.7
[4]; [8]
  herbicidal effect rating, ECHORC: 9.0
[4]; [9]
  herbicidal effect rating, ECHORC: 9.0

## COC(=O)COc1c(C)cc(C)cc1-c1nsc2ccc(-n3c(=O)cc(C(F)(F)F)n(C)c3=O)cc12 [Example 26, Methyl {{6-{5-[3,6-dihydro-3-methyl-2,6-dioxo-4-(trifluoromethyl)-1(2H)-pyrimidinyl]-1,2-benzisothiazol-3-yl}-2,4-xylyl}oxy}acetate]
Sagittaria pygmaea, L.; [15]
  herbicidal effect rating, SAGPY: 0.0
Sagittaria pygmaea, L.; [16]
  herbicidal effect rating, SAGPY: 0.0
Sagittaria pygmaea, L.; [17]
  herbicidal effect rating, SAGPY: 2.0
Sagittaria pygmaea, L.; [18]
  herbicidal effect rating, SAGPY: 9.0
Cyperus iria; [15]
  herbicidal effect rating, CYPIR: 6.0
Cyperus iria; [16]
  herbicidal effect rating, CYPIR: 8.0
Cyperus iria; [17]
  herbicidal effect rating, CYPIR: 9.0
Cyperus iria; [18]
  herbicidal effect rating, CYPIR: 9.0
[1]; 0.0313 kg/ha, rated three to four weeks after treatment
  herbicidal effect rating, ORYSAT (rice tolerance): 3.0
[1]; 0.0625 kg/ha, rated three to four weeks after treatment
  herbicidal effect rating, ORYSAT (rice tolerance): 4.0
[1]; 0.1250 kg/ha, rated three to four weeks after treatment
  herbicidal effect rating, ORYSAT (rice tolerance): 6.0
[1]; 0.2500 kg/ha, rated three to four weeks after treatment
  herbicidal effect rating, ORYSAT (rice tolerance): 9.0
[2]; [15]
  herbicidal effect rating, MOOVA: 9.0
[2]; [16]
  herbicidal effect rating, MOOVA: 9.0
[2]; [17]
  herbicidal effect rating, MOOVA: 9.0
[2]; [18]
  herbicidal effect rating, MOOVA: 9.0
[3]; [15]
  herbicidal effect rating, CYPSE: 0.0
[3]; [16]
  herbicidal effect rating, CYPSE: 4.0
[3]; [17]
  herbicidal effect rating, CYPSE: 2.0
[3]; [18]
  herbicidal effect rating, CYPSE: 9.0
[4]; [15]
  herbicidal effect rating, ECHORC: 7.0
[4]; [16]
  herbicidal effect rating, ECHORC: 9.0
[4]; [17]
  herbicidal effect rating, ECHORC: 9.0
[4]; [18]
  herbicidal effect rating, ECHORC: 9.0

## Cc1ccc(OCC(=O)NO)c(-c2nsc3ccc(-n4c(=O)cc(C(F)(F)F)n(C)c4=O)cc23)c1 [Example 313, Acetohydroxamic acid, 2-{{2-{5-[3,6-dihydro-3-methyl-2,6-dioxo-4-(trifluoromethyl)-1(2H)-pyrimidinyl]-1,2-benzisothiazol-3-yl}-p-tolyl}oxy}-]
Sagittaria pygmaea, L.; [19]
  herbicidal effect rating, SAGPY: 0.0
Sagittaria pygmaea, L.; [20]
  herbicidal effect rating, SAGPY: 0.0
Sagittaria pygmaea, L.; [21]
  herbicidal effect rating, SAGPY: 0.0
Sagittaria pygmaea, L.; [22]
  herbicidal effect rating, SAGPY: 3.0
Cyperus iria; [19]
  herbicidal effect rating, CYPIR: 0.0
Cyperus iria; [20]
  herbicidal effect rating, CYPIR: 0.0
Cyperus iria; [21]
  herbicidal effect rating, CYPIR: 9.0
Cyperus iria; [22]
  herbicidal effect rating, CYPIR: 9.0
[1]; Rate 0.0320 kg/ha, rated three to four weeks after treatment
  herbicidal effect rating ORYSAT: 0.0
[1]; Rate 0.0620 kg/ha, rated three to four weeks after treatment
  herbicidal effect rating ORYSAT: 1.0
[1]; Rate 0.1250 kg/ha, rated three to four weeks after treatment
  herbicidal effect rating ORYSAT: 3.0
[1]; Rate 0.2500 kg/ha, rated three to four weeks after treatment
  herbicidal effect rating ORYSAT: 4.0
[2]; [19]
  herbicidal effect rating, MOOVA: 0.0
[2]; [20]
  herbicidal effect rating, MOOVA: 9.0
[2]; [21]
  herbicidal effect rating, MOOVA: 9.0
[2]; [22]
  herbicidal effect rating, MOOVA: 9.0
[3]; [19]
  herbicidal effect rating, CYPSE: 0.0
[3]; [20]
  herbicidal effect rating, CYPSE: 0.0
[3]; [21]
  herbicidal effect rating, CYPSE: 0.0
[3]; [22]
  herbicidal effect rating, CYPSE: 2.0
[4]; [19]
  herbicidal effect rating, ECHORC: 4.0
[4]; [20]
  herbicidal effect rating, ECHORC: 5.0
[4]; [21]
  herbicidal effect rating, ECHORC: 6.0
[4]; [22]
  herbicidal effect rating, ECHORC: 9.0

## CCCCCCCCCOC(=O)COc1ccc(C)cc1-c1nsc2ccc(-n3c(=O)cc(C(F)(F)F)n(C)c3=O)cc12 [Example 519, Acetic acid, {{2-{5-[3,6-dihydro-3-methyl-2,6-dioxo-4-(trifluoromethyl)-1(2H)-pyrimidinyl]-1,2-benzisothiazol-3-yl}-p-tolyl}oxy}-, nonyl ester]
Sagittaria pygmaea, L.; [5]
  herbicidal effect rating, SAGPY: 0.0
Sagittaria pygmaea, L.; [6]
  herbicidal effect rating, SAGPY: 0.0
Sagittaria pygmaea, L.; [7]
  herbicidal effect rating, SAGPY: 0.0
Sagittaria pygmaea, L.; [8]
  herbicidal effect rating, SAGPY: 0.0
Cyperus iria; [5]
  herbicidal effect rating, CYPIR: 0.0
Cyperus iria; [6]
  herbicidal effect rating, CYPIR: 0.0
Cyperus iria; [7]
  herbicidal effect rating, CYPIR: 2.0
Cyperus iria; [8]
  herbicidal effect rating, CYPIR: 6.0
[1]; [10]
  herbicidal effect rating ORYSAT: 2.0
[1]; [11]
  herbicidal effect rating ORYSAT: 4.0
[1]; [12]
  herbicidal effect rating ORYSAT: 4.5
[1]; [13]
  herbicidal effect rating ORYSAT: 4.0
[2]; [5]
  herbicidal effect rating, MOOVA: 9.0
[2]; [6]
  herbicidal effect rating, MOOVA: 9.0
[2]; [7]
  herbicidal effect rating, MOOVA: 9.0
[2]; [8]
  herbicidal effect rating, MOOVA: 9.0
[3]; [5]
  herbicidal effect rating, CYPSE: 0.0
[3]; [6]
  herbicidal effect rating, CYPSE: 0.0
[3]; [7]
  herbicidal effect rating, CYPSE: 0.0
[3]; [8]
  herbicidal effect rating, CYPSE: 0.0
[4]; [5]
  herbicidal effect rating, ECHORC: 2.0
[4]; [6]
  herbicidal effect rating, ECHORC: 4.0
[4]; [7]
  herbicidal effect rating, ECHORC: 6.5
[4]; [8]
  herbicidal effect rating, ECHORC: 9.0

## Cc1ccc(C(=O)C(C)Oc2ccccc2-c2nsc3ccc(-n4c(=O)cc(C(F)(F)F)n(C)c4=O)cc23)cc1C (stereo not drawn) [Example 550, 2,4(1H,3H)-Pyrimidinedione, 3-{-3-{o-[1-(3,4-dimethylbenzoyl)ethoxy]phenyl}-1,2-benzisothiazol-5-yl]-1-methyl-6-(trifluoromethyl)-]
Sagittaria pygmaea, L.; [5]
  herbicidal effect rating, SAGPY: 0.0
Sagittaria pygmaea, L.; [6]
  herbicidal effect rating, SAGPY: 0.0
Sagittaria pygmaea, L.; [7]
  herbicidal effect rating, SAGPY: 0.0
Sagittaria pygmaea, L.; [8]
  herbicidal effect rating, SAGPY: 0.0
Sagittaria pygmaea, L.; [9]
  herbicidal effect rating, SAGPY: 0.0
Cyperus iria; [5]
  herbicidal effect rating, CYPIR: 2.0
Cyperus iria; [6]
  herbicidal effect rating, CYPIR: 8.0
Cyperus iria; [7]
  herbicidal effect rating, CYPIR: 8.0
Cyperus iria; [8]
  herbicidal effect rating, CYPIR: 7.0
Cyperus iria; [9]
  herbicidal effect rating, CYPIR: 5.0
[1]; [10]
  herbicidal effect rating ORYSAT: 0.0
[1]; [11]
  herbicidal effect rating ORYSAT: 0.0
[1]; [12]
  herbicidal effect rating ORYSAT: 0.0
[1]; [13]
  herbicidal effect rating ORYSAT: 0.0
[1]; [14]
  herbicidal effect rating ORYSAT: 0.0
[2]; [5]
  herbicidal effect rating, MOOVA: 9.0
[2]; [6]
  herbicidal effect rating, MOOVA: 9.0
[2]; [7]
  herbicidal effect rating, MOOVA: 9.0
[2]; [8]
  herbicidal effect rating, MOOVA: 9.0
[2]; [9]
  herbicidal effect rating, MOOVA: 9.0
[3]; [5]
  herbicidal effect rating, CYPSE: 0.0
[3]; [6]
  herbicidal effect rating, CYPSE: 0.0
[3]; [7]
  herbicidal effect rating, CYPSE: 0.0
[3]; [8]
  herbicidal effect rating, CYPSE: 0.0
[3]; [9]
  herbicidal effect rating, CYPSE: 9.0
[4]; [5]
  herbicidal effect rating, ECHORC: 4.7
[4]; [6]
  herbicidal effect rating, ECHORC: 5.9
[4]; [7]
  herbicidal effect rating, ECHORC: 5.9
[4]; [8]
  herbicidal effect rating, ECHORC: 9.0
[4]; [9]
  herbicidal effect rating, ECHORC: 9.0
